We go through one compound from publication PMC10807816, “Molecular mechanisms and evolutionary robustness of a color switch in proteorhodopsins” (Science Advances, 2024).

The target of the assay is T1, GPR (green proteorhodopsin) (uncultured marine gamma proteobacterium EBAC31A08, UniProt Q9F7P4, L105Q).
T1 construct: pET27b(+) NdeI/XhoI, C-terminal HSV tag and His6 tag kept; E. coli C43; Ni-NTA, DDM, DMPC/DMPA liposomes
In words: solid-state NMR (DNP, CSA, 2D […]/1H/[…]) and UV-Vis. Type of assay: binding. The following applies: covalent; protonated Schiff base to Lys231; pH 9.0; labelled compound; called BPR.

T1 sequence (Q9F7P4 18-249 L105Q): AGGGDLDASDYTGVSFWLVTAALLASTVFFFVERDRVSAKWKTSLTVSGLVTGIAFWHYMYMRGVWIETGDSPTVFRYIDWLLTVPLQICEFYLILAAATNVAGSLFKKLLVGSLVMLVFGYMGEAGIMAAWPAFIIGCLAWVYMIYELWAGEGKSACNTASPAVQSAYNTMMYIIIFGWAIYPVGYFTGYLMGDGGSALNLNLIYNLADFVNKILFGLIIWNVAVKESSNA

With `CC1=C(/C=C/C(C)=C/C=C/C(C)=C/C=O)C(C)(C)CCC1` [all-trans retinal], the “solid-state NMR (DNP, CSA, 2D 13C/1H/15N) and UV-Vis” value was “Notable chemical shift changes between GPR and BPR have been observed”.
